# Laboratory results as given in patent US11299715B2, “Use of iNOS inhibitors to increase viral yield in culture” (priority 2013, dated 2022).
# Columns and labels:
# [1] = tested on: NOS3 = eNOS; experiment: Affymetrix Gen Array, NOS3 expression in 293 cells; format: cell-based, human; conditions: probe 205581_s_at
# Procedure: Confluent 293 cells (2.4×10^6 cells in a 75 cm^2 flask) were cultured in DMEM+10% FCS for approximately 20 hrs and were then infected with one plaque forming unit per cell (PFU/cell) of HSV-1 MacIntyre Strain for 90 min. ATA at a concentration 20 μM (final) was added 90 min post-infection. The infected cells were harvested at 24 h after infection. Total RNA of sufficient quality and quantity was isolated from suspension using RNeasy Plus Mini Kit (QIAGEN, Valencia, Calif.) according to the manufacturer's instructions. Whole genome expression profiling was performed on Affymetrix Human U133 Plus 2.0 Array by the Asuragen, Inc. 3 μg total RNA was provided as input material.
# Overall, RNA quality assessed on the bioanalyzer had RIN values of >9. Array hybridization and scaling factors were within passing quality control range. After scanning, raw expression CEL files were processed with Affymetrix Expression Console vs.1.1.2 (affymetrix.com). Each CEL file was processed with Robust Multichip Analysis (RMA) and a summarized table was exported as a text file. All downstream genomics and statistical analyses were done with JMP Genomics (version 5) (jmp.com/software/genomics). First, a filtering step was applied to filter-out low expression, specifically, those values below 6 in log^2 mode in at least 2 out of 8 samples. […]
# [2] = tested on: wtHSV-1 KOS strain; experiment: wtHSV-1 KOS strain propagation in 293, HeLa and Vero cells with ATA; format: cell-based, HSV-1
# Text: The wtHSV-1 KOS strain and the ICP27-deficient derivatives of the wtHSV-1 KOS strain: vectors d27-1 (Rice and Knipe, J. Virol. (1990) 64:1704-1715), rHSV-rep2/cap2 and rHSV-EGFP (Kang et al., Gene Ther. (2009) 16:229-239) and their producer ICP27-complementing V27 cell line were obtained from AGTC (Alachua, Fla.). The wtHSV-1 MacIntyre strain, purchased from Advanced Biotechnologies Inc. (ABI, Columbia Md.) and wtHSV-1 KOS strain were propagated in Vero, 293 or HeLa cell lines. Infectious vector particles were harvested 72 hr postinfection by recovering culture supernatant. The titers of HSV-1 stocks in DNase resistant particles/ml (DRP/ml) were determined by Taqman assay. Viral genomes within crude culture medium were quantified via treatment in the presence of DNase I (50 U/ml final; Promega) at 37° C. for 60 min, followed by proteinase K (Invitrogen) digestion (1 U/ml) at 50° C. for 60 min, and then denatured at 95° C. for 30 min. Linearized plasmid pZero 195 UL36 (obtained from AGTC, Inc., Alachua, Fla.) was used to generate standard curves.
# ATA (Sigma-A1895 Aurintricarboxylic acid practical grade, ≥85% (titration), powder) stock solution was generated as 500 μM concentration in 100 mM sodium bicarbonate water solution. ATA stock solution was further diluted in DMEM+/−10% fetal bovine serum (FBS, Hyclone, Waltham, Mass.) into concentration ranges of […] ATA (8.5-21 μgATA/ml). The HSV-1 infection at multiplicity of infection of 0.15 (MOI=0.15) (typically 6×10^5 cells in a 6-well plate) was performed in 40% (⅖ vol) of the total final media volume for 1-2 hrs and the remaining media (60% or ⅗ of the total final volume) was added during the dilution step. The cells were then incubated 72 hours and supernatant harvested to perform forming units per milliliter (PFU/ml) and DRP/ml titer assays.
# Supernatants containing virus were harvested after three days as described above. […] Finally, ATA also appeared to inhibit both types of HSV-1 viruses in HeLa cells. Two-way ANOVA; Bonferroni test; −ATA vs. +ATA: ***: p<0.001, ns: p>0.05; n=4 independent experiments.
# In order to illuminate the ATA mechanism of action by human genome array and the fact that Vero and V27 are monkey-derived cell lines, wtHSV-1 propagation was tested in several human cell lines (FIGS. 4A-4B). A propagation of two wild type HSV-1 (wtHSV-1) strains, KOS and McIntyre, were compared in three cell lines: human embryonic kidney 293 (293 cells), human cervical cancer HeLa cells and African green monkey kidney epithelial Vero cells. The experiments were carried out in 10% FBS-containing media following the ATA I protocol scheme, where 50 μM ATA was supplemented during the infection step and further diluted to 20 μM ATA concentration (see Material and Methods).
# [3] = tested on: iNOS; experiment: Western blot of iNOS in HSV-1 d27.1-infected V27 cell lysates; format: cell-based, African green monkey; conditions: 30 μM ATA; d27.1 MOI 1; V27 lysates 24 h.p.i.; with or without 10% FBS
# Procedure: V27 cells in Dulbecco's Modified Eagles Medium (DMEM) (Hyclone, Waltham, Mass.) were infected with the HSV-1 d27.1 vector at an MOI of 1 and treated with 30 μM ATA (Sigma, St. Louis, Mo.), with or without 10% fetal bovine serum (FBS). Control experiments without ATA were also performed. V27 cell lysates were obtained 24 hours post infection (h.p.i.) and Western blots were run on the lysates and iNOS protein was detected by using purified rabbit anti-iNOS/NOS Type II pAb (BD Biosciences, Cat#610332).
structure (smiles),measurement,setting,value
"O=C(O)C1=CC(=C(c2ccc(O)c(C(=O)O)c2)c2ccc(O)c(C(=O)O)c2)C=CC1=O [ATA, 5-((3-carboxy-4-hydroxyphenyl)(3-carboxy-4-oxo-2,5-cyclohexadien-1-ylidene)methyl)-2-hydroxybenzoic acid]","NOS3 expression, ATA",[1]; ATA alone,1.24
same,"NOS3 expression, HSV + ATA","[1]; HSV + ATA, HSV alone 2.45",1.94
same,HSV-1 KOS growth in 293 cells,"[2]; 50 μM ATA at Step 1, 20 μM after Step 2, 293 cells",inhibit
same,propagation of HSV-1 KOS in HeLa cells,"[2]; 50 μM ATA at Step 1, 20 μM after Step 2, HeLa cells",inhibit
same,yield of wtHSV-1 KOS in Vero cells,"[2]; 50 μM ATA at Step 1, 20 μM after Step 2, Vero cells, 10% FBS",increased
same,wtHSV-1 KOS titer in Vero cells,"[2]; 50 μM ATA at infection, diluted to 20 μM, 10% FBS, n=4, without ATA 1.7×10^8",9.1×10^8 DRP/ml
same,"293 or Vero titers with ATA, KOS",[2]; summary statement,up to 1×10^9 DRP/ml
same,increase of wt HSV-1 KOS yields,[2]; summary statement,1 log
same,iNOS expression (Western blot),[3],inhibits
